From paper PMC12481576, “Barbituric Acid Derivatives as Covalent Inhibitors of Leishmania braziliensis Dihydroorotate Dehydrogenase” (Journal of Medicinal Chemistry, 2025)
In brackets after ≈: the same amount, converted by molar mass. Several values for one entry are separate records, joined by “and”; a condition that tells them apart may be missing. Identical values can stand only once. Like-named read-outs stand apart in the source and are kept apart here.

Legend:
[1] = target: T1, HsDHODH (Homo sapiens, UniProt Q02127); experiment: Selectivity assay: HsDHODH single-dose inhibition (DCIP reduction); format: biochemical
T1 construct: made in house
T1 sequence (Q02127 whole entry): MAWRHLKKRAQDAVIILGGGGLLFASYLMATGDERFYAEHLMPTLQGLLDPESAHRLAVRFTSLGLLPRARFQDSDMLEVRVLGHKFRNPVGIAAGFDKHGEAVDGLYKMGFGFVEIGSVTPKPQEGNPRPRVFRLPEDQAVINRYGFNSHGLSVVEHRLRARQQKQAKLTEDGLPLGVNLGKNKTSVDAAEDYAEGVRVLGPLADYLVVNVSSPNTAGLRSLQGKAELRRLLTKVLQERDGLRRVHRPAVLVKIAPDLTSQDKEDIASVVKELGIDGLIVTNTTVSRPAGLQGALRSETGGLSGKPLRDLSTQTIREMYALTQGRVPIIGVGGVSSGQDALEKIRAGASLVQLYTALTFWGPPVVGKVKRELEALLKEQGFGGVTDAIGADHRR
How it was run: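 Single-dose format, run in triplicate: His-purified HsDHODH (20 nM final) started by adding reaction buffer, absorbance at 610 nm (DCIP) recorded for 60 s at 3-s intervals. Initial rates converted to percent of no-compound control activity.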

[2] = test system: Leishmania braziliensis promastigotes; experiment: Leishmanicidal activity, promastigote growth (SYBR Green, 72 h); format: cell-based, Leishmania (V.) braziliensis (MHOM/BR/1975/M2904); settings: Leishmania braziliensis, L. braziliensis promastigotes, max 200 μM
How it was run: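 Cultures at 4 × 10^6 parasites/mL were exposed 72 h to serially decreasing compound levels, top 200 μM, with final DMSO 0.5% and medium-only control.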

[3] = Cell viability / cytotoxicity assay (PrestoBlue, 72 h); format: cell-based; settings: human; THP-1 cell line, 72 h, max 200 μM; read-out: CC50
How it was run: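 Viability was measured with PrestoBlue fluorescence (560/590 nm, 2 h) after 72 h compound exposure at 37 °C. Test concentrations descended from 200 μM. The THP-1 monocytes had first been differentiated with 150 ng/mL phorbol myristate acetate for 48 h, then rested 24 h.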

[4] = Parallel artificial membrane permeability assay (PAMPA); settings: for recovery at 6 h, 10 µM: PAMPA
Method: Solutions of the compounds were prepared in duplicate by diluting the stock solutions (10 mM) in phosphate buffered saline (PBS) pH 7.4 at a final concentration of 10 μM (5% DMSO). The solutions diluted in PBS pH 7.4 were then added to the donor portion of the plate (300 μL/well), while in the acceptor portion PBS pH 7.4 (200 μL/well) was added. The two portions of the plate were then coupled, and the system was incubated for 6 h at room temperature. Samples of the initial donor solution (T0) were collected at the beginning (T0) and stored at 5 °C. The final concentrations of compounds in the donor, acceptor and T0 wells were quantified by LC-MS/MS.

[5] = Kinetic solubility assay in PBS pH 7.4; format: physicochemical; settings: kinetic from dmso stock, 1% DMSO
Method: The plate was incubated for 2 h at 25 °C. The precipitates on the incubation plate were removed by filtration and the filtrates were quantified by LC-MS/MS. Calibration curves were prepared for each compound by using 5–6 points. Samples were analyzed by UV–vis.

[6] = for Raw data: analyte peak area, T=0: 0 min; for Raw data: analyte peak area, T=0 / Raw data: analyte peak area, T=5 / Raw data: analyte peak area, T=10 / Raw data: analyte peak area, T=20: raw LC-MS area; for Raw data: analyte peak area, T=5: 5 min; for Raw data: analyte peak area, T=10: 10 min; for Raw data: analyte peak area, T=20: 20 min
[7] = Mouse liver microsome stability in the absence of cofactors (NCF); settings: 60 min, no cofactor (NCF); for Raw data: analyte peak area, T=60 NCF: mouse liver microsomes, raw LC-MS area; for remaining at 1 h, 1 µM: mouse, microsomes, pH 7.4, % Remaining, T=60 NCF
[8] = average of n=2, 10µM, PBS pH 7.4/7.4, 6h at room temperature
[9] = mouse liver microsomes, replicate 1 (left block)
[10] = mouse liver microsomes, replicate 2 (right block)

O=C1NC(=O)C(=Cc2ccc(N3CCOCC3)cc2[N+](=O)[O-])C(=O)N1 [2e, 5-(4-Morpholino-2-nitrobenzylidene)pyrimidine-2,4,6(1H,3H,5H)-trione]
activity at 100 µM ([1]; read-out: Single dose (0h) % activity): 80 ± 9% | activity at 100 µM ([1]; read-out: Single dose (4h) % activity): 86 ± 8% | EC50 [2]: 17 ± 11 µM | CC50 at 72 h [3]: > 200 µM | Remarks (PAMPA) ([4]; 10µM, PBS pH 7.4/7.4, 6h at room temperature, LC-MS/MS): No peak detected in acceptor samples | recovery at 6 h, 10 µM ([4]; pH 7.4, % Recovery n=1, replicate n=1, 10µM, PBS pH 7.4/7.4, 6h at room temperature): 95.1% | recovery at 6 h, 10 µM ([4]; pH 7.4, % Recovery n=2, replicate n=2, 10µM, PBS pH 7.4/7.4, 6h at room temperature): 101% | recovery at 6 h, 10 µM ([4]; pH 7.4, Avg % Recovery, average of n=2, 10µM, PBS pH 7.4/7.4, 6h at room temperature): 98.2% | Avg Log Pe (cm/sec) [4, 8]: -9.4 cm/sec and -9.35 cm/sec | Avg Pe [4, 8]: 0.000444 ×10⁻⁶ cm/s | LogPe (cm/sec) n1 ([4]; replicate n1, calculation section, 10µM, PBS pH 7.4/7.4, 6h): -9.34 cm/sec | LogPe (cm/sec) n2 ([4]; replicate n2, calculation section, 10µM, PBS pH 7.4/7.4, 6h): -9.37 cm/sec | Pe (nm/sec) n=1 ([4]; replicate n=1, 10µM (5% DMSO), PBS pH 7.4/7.4, 6h at room temperature, LC-MS/MS): 0.00461 nm/s | % Recovery n=1 ([4]; replicate n=1, 10µM, PBS pH 7.4/7.4, 6h at room temperature): 95.05% | Pe (nm/sec) n=2 ([4]; replicate n=2, 10µM (5% DMSO), PBS pH 7.4/7.4, 6h at room temperature, LC-MS/MS): 0.00426 nm/s | solubility kinetic at 2 h ([5]; 25 °C, pH 7.4, aqueous buffer, PBS pH 7.4, 200 μM test conc, 2 h at 25 °C): 178 µM (≈ 61.8 µg/mL) | solubility at 2 h ([5]; aqueous buffer, PBS pH 7.4, 200 µM, 2 hours at 25°C): 53.4 µg/mL (≈ 154 µM) | Calculated T-half (min), Average ([6]; mouse liver microsomes (CD1 male), 0.4 mg/ml protein, test conc 1 µM, average of n=1 and n=2): 298.4 min | Calculated T-half (min), n=1 ([6]; mouse liver microsomes (CD1 male), 0.4 mg/ml protein, test conc 1 µM, replicate n=1): 354.59 min and 354.6 min | Calculated T-half (min), n=2 ([6]; mouse liver microsomes (CD1 male), 0.4 mg/ml protein, test conc 1 µM, replicate n=2): 242.28 min and 242.3 min | Raw data: analyte peak area, T=0 [6, 9]: 18699 | Raw data: analyte peak area, T=0 [6, 10]: 19500 | Modified T-half (min), Average ([6]; mouse liver microsomes, 0.4 mg/ml, 1 µM, average, limited to T Half range 3.00 - […]): >120.0 min | Raw data: analyte peak area, T=5 [6, 9]: 18869 | Raw data: analyte peak area, T=5 [6, 10]: 20171 | Raw data: analyte peak area, T=10 [6, 9]: 18566 | Raw data: analyte peak area, T=10 [6, 10]: 21617 | Raw data: analyte peak area, T=20 [6, 9]: 17411 | Raw data: analyte peak area, T=20 [6, 10]: 21071 | mouse liver microsomes T-half ([6]; mouse liver microsomes, NADPH, 1 μM): >120.0 min | Raw data: analyte peak area, T=60 NCF ([7]; replicate 1 (left block)): 19133 | Raw data: analyte peak area, T=60 NCF ([7]; replicate 2 (right block)): 18454 | remaining at 1 h, 1 µM ([7]; n=1, mouse liver microsomes, n=1): 100% | remaining at 1 h, 1 µM ([7]; n=2, mouse liver microsomes, n=2): 93.1%
